Assay results from patent US11952337B2, “Bioenergetically active esters for health and disease” (University of Kansas, priority 2018, dated 2024).
“Also recorded” adds a separate entry of the source.

Key:
SH-SY5Y cells [1] = test: Respiration / oxygen consumption rate (OCR), Seahorse Extracellular Flux analyzer; assay type: cell-based, human; settings: for Effect on respiration (OCR), in words: SH-SY5Y cultured neuronal cells; for Increase of cellular respiration and/or glycolysis, near maximum possible levels: preliminary testing, FIGS. 2 and 3; for ATP-linked Respiration / Change in OCR post injection (1) / Maximum OCR / Post-Oligomycin (Leak Rate) OCR: average of three experiments
Experimental: (§1) In these experiments, oligomycin, FCCP, rotenone/antimycin, and 2-deoxyglucose were used to determine the proportion of oxygen that was consumed as part of the mitochondrial “leak” and “ATP production”; maximum and spare flux rates were also determined using standard established flux analysis protocols. […] FIG. 1D schematically summarizes this pathway.
(§2) For these measurements, oligomycin, FCCP, and rotenone/antimycin were used to determine mitochondrial respiration leak rates, the maximum oxygen consumption rate, and the non-mitochondrial oxygen consumption rate. […] The dose-response was logarithmic over a test range of 0.1 to 2 mM (FIG. 4). FIG. 3A illustrates respiration peaking at ˜40% enhancement, which is the maximum possible when mitochondria are chemically uncoupled.

SH-SY5Y cells [2] = test: Glycolysis flux (ECAR), Seahorse Extracellular Flux analyzer; assay type: cell-based, human
Experimental: as §1, §2

[3] = in solution, especially in the presence of amino acids; cited from earlier work
[4] = mice, cited from earlier work
[5] = cited from earlier work

Compound: CC(CC(=O)O)OC(=O)CC(=O)C(=O)OC(C)CC(=O)O (centres unmarked) [OAA(BHB)2, 3,3′-((2-oxosuccinyl)bis(oxy))dibutyric acid]
- Increase in cell respiration (SH-SY5Y cells [1]; 1-mM dose, SH-SY5Y, FIG. 2, averages of three experiments): ~30%
- Effect on respiration (OCR), in words (SH-SY5Y cells [1]): increases respiration
- Increase of cellular respiration and/or glycolysis, near maximum possible levels (SH-SY5Y cells [1]): ~40%

Compound: CC(O)COC(=O)CC(=O)C(=O)OCC(C)O (centres unmarked) [OAA(PG)2, Bis(2-hydroxypropyl) 2-oxosuccinate]
- Effect on glycolysis (ECAR) (SH-SY5Y cells [2]; 1, 2 and 5 mM OAA(PG)2, SH-SY5Y, FIG. 3B): without concomitantly creating a statistical reduction in the glycolysis flux; also recorded: insignificant effect on glycolysis
- ATP-linked Respiration (SH-SY5Y cells [1]; 0.1 mM, SH-SY5Y): 50.1%
- Change in OCR post injection (1) (SH-SY5Y cells [1]; 0.1 mM, SH-SY5Y): 101.7%
- Maximum OCR (SH-SY5Y cells [1]; 0.1 mM, SH-SY5Y): 98.92%
- Post-Oligomycin (Leak Rate) OCR (SH-SY5Y cells [1]; 0.1 mM, SH-SY5Y): 51.58%
- ATP-linked Respiration (SH-SY5Y cells [1]; 0.25 mM, SH-SY5Y): 50.66%
- Change in OCR post injection (1) (SH-SY5Y cells [1]; 0.25 mM, SH-SY5Y): 101.1%
- Maximum OCR (SH-SY5Y cells [1]; 0.25 mM, SH-SY5Y): 93.08%
- Post-Oligomycin (Leak Rate) OCR (SH-SY5Y cells [1]; 0.25 mM, SH-SY5Y): 50.46%
- ATP-linked Respiration (SH-SY5Y cells [1]; 0.5 mM, SH-SY5Y): 44.78%
- Change in OCR post injection (1) (SH-SY5Y cells [1]; 0.5 mM, SH-SY5Y): 103.9%
- Maximum OCR (SH-SY5Y cells [1]; 0.5 mM, SH-SY5Y): 93.62%
- Post-Oligomycin (Leak Rate) OCR (SH-SY5Y cells [1]; 0.5 mM, SH-SY5Y): 59.15%
- ATP-linked Respiration (SH-SY5Y cells [1]; 1 mM, SH-SY5Y): 52.7%
- Change in OCR post injection (1) (SH-SY5Y cells [1]; 1 mM, SH-SY5Y): 106.5%
- Maximum OCR (SH-SY5Y cells [1]; 1 mM, SH-SY5Y): 81.46%
- Post-Oligomycin (Leak Rate) OCR (SH-SY5Y cells [1]; 1 mM, SH-SY5Y): 53.8%
- ATP-linked Respiration (SH-SY5Y cells [1]; 2 mM, SH-SY5Y): 68.89%
- Change in OCR post injection (1) (SH-SY5Y cells [1]; 2 mM, SH-SY5Y): 119.8%
- Maximum OCR (SH-SY5Y cells [1]; 2 mM, SH-SY5Y): 91.73%
- Post-Oligomycin (Leak Rate) OCR (SH-SY5Y cells [1]; 2 mM, SH-SY5Y): 50.86%
- Effect on respiration (OCR), in words (SH-SY5Y cells [1]): enhance respiration
- Peak enhancement of respiration (SH-SY5Y cells [1]; SH-SY5Y, FIG. 3A, maximum possible when mitochondria are chemically uncoupled): ~40%
- Increase of cellular respiration and/or glycolysis, near maximum possible levels (SH-SY5Y cells [1]): ~40%
- Shape of dose-response of respiration (SH-SY5Y cells [1]; test range of 0.1 to 2 mM, FIG. 4): logarithmic

Compound: O=C(O)CC(=O)C(=O)O [OAA, 2-oxosuccinic acid]
- Decarboxylation rate into pyruvate [3]: ~1 %/min
- Increase in glycolysis flux capacity (SH-SY5Y cells [2]; 2 mM OAA, SH-SY5Y, FIG. 1B): about 50%
- Effect on glycolysis flux (SH-SY5Y cells [2]; 2 mM, SH-SY5Y, FIG. 1B): enhances rather than impedes glycolysis flux
- Increase in cellular respiration (SH-SY5Y cells [1]; OAA treatment, SH-SY5Y, FIG. 1C): about 50%
- Effect on respiration (OCR), in words (SH-SY5Y cells [1]): increase aspects of mitochondrial respiration flux
- Brain changes ([4]; 1 g/kg/day and 2 g/kg/day): induced unequivocal brain changes
- Activity of NFκB transcription factor (neuroinflammation) ([4]; intraperitoneal (IP) injection): lessened activity
- Hippocampal neurogenesis ([4]; intraperitoneal (IP) injection): increased hippocampal neurogenesis
- Insulin pathway signaling in brain ([4]; intraperitoneal (IP) injection): enhanced insulin pathway signaling
- Mitochondrial biogenesis parameters in brain ([4]; intraperitoneal (IP) injection): promoted mitochondrial biogenesis parameters
- Safety profile ([5]; AD clinical study, doses up to 1 gram BID): excellent safety profile
- Plasma level increase ([5]; PK study, 100 mg BID, AD participants): did not reveal a reliable plasma level increase

Compound: CC(O)C(=O)O (centres unmarked) [lactate, reference compound]
- Effect on respiration, in words (SH-SY5Y cells [1]; experiments not further specified): effectively promote respiration
